Laboratory results: patent publication US20220104493A1, “HERBICIDAL COMPOUNDS” (SYNGENTA CROP PROTECTION AG, priority 2019, published 2022)
Where two headings read alike, the source gives them in different places.

Key:
Assay in all cases: Post-emergence efficacy, Method A
Type in all cases: in vivo
[1] = test system: Amaranthus palmeri (AMAPA); conditions: read-out: Control of weed species after post-emergence application, AMAPA
[2] = test system: Echinochloa crus-galli (ECHCG); conditions: read-out: Control of weed species after post-emergence application, ECHCG
[3] = test system: Digitaria sanguinalis (DIGSA); conditions: read-out: Control of weed species after post-emergence application, DIGSA
[4] = test system: Eleusine indica (ELEIN); conditions: read-out: Control of weed species after post-emergence application, ELEIN
[5] = test system: Chenopodium album (CHEAL); conditions: read-out: Control of weed species after post-emergence application, CHEAL
[6] = test system: Setaria faberi (SETFA); conditions: read-out: Control of weed species after post-emergence application, SETFA
[7] = test system: Ipomoea hederacea (IPOHE); conditions: read-out: Control of weed species after post-emergence application, IPOHE
[8] = test system: Lolium perenne (LOLPE); conditions: read-out: Control of weed species after post-emergence application, LOLPE
[9] = 500 g/Ha, 100=total damage to plant, 0=no damage, evaluated after 7 and 14 days

Row | SMILES | pest or weed control at 500 g/ha [1, 9] [%] | pest or weed control at 500 g/ha [2, 9] [%] | pest or weed control at 500 g/ha [3, 9] [%] | pest or weed control at 500 g/ha [4, 9] [%] | pest or weed control at 500 g/ha [5, 9] [%] | pest or weed control at 500 g/ha [6, 9] [%] | pest or weed control at 500 g/ha [7, 9] [%] | pest or weed control at 500 g/ha [8, 9] [%] | pest or weed control at 500 g/ha [1] [%] | pest or weed control at 500 g/ha [2] [%] | pest or weed control at 500 g/ha [3] [%] | pest or weed control at 500 g/ha [4] [%] | pest or weed control at 500 g/ha [5] [%] | pest or weed control at 500 g/ha [6] [%] | pest or weed control at 500 g/ha [7] [%] | pest or weed control at 500 g/ha [8] [%]
1 | O=S(=O)([O-])C[n+]1ccc(-c2ccsn2)cc1 [Compound A42] | 90 | 10 | 10 | 0 | 20 | 10 | 10 | 0 | – | – | – | – | – | – | – | –
2 | CNC(=O)c1cc(-c2cc[n+](CCCS(=O)(=O)[O-])cc2)on1 [Compound A52] | 20 | 10 | 20 | 10 | 30 | 10 | 10 | 10 | – | – | – | – | – | – | – | –
3 | CP(=O)([O-])C[n+]1ccc(-c2ncns2)cc1 [Compound A10, methyl-[[4-(1,2,4-thiadiazol-5-yl)pyridin-1-ium-1-yl]methyl]phosphinate] | – | – | – | – | – | – | – | – | 90 | 90 | 90 | 90 | 90 | 100 | 50 | 40
4 | O=S(=O)([O-])C[n+]1ccc(-c2nc(C(F)(F)F)co2)cc1 [Compound A43] | 40 | 60 | 30 | 60 | 40 | 20 | 30 | 10 | – | – | – | – | – | – | – | –
5 | CNC(=O)c1nc(-c2cc[n+](CCCS(=O)(=O)[O-])cc2)no1 [Compound A51] | 10 | 30 | 50 | 10 | 60 | 30 | 10 | 20 | – | – | – | – | – | – | – | –
6 | CC([n+]1ccc(-c2ncns2)cc1)S(=O)(=O)[O-] (stereo not drawn) [Compound A11] | 100 | 100 | 80 | 90 | 90 | 60 | 80 | 60 | – | – | – | – | – | – | – | –
7 | O=S(=O)([O-])CCC[n+]1ccc(-c2noc(C(F)(F)F)n2)cc1 [Compound A15, 3-[4-[5-(trifluoromethyl)-1,2,4-oxadiazol-3-yl]pyridin-1-ium-1-yl]propane-1-sulfonate] | 0 | 30 | 30 | 10 | 0 | 30 | 20 | 0 | – | – | – | – | – | – | – | –
8 | CCOP(=O)([O-])C[n+]1ccc(-c2ncns2)cc1 [Compound A31] | – | – | – | – | – | – | – | – | 70 | 70 | 80 | 80 | 70 | 40 | 30 | 20
9 | CS(=O)(=O)[N-]C(=O)C[n+]1ccc(-c2ncns2)cc1 [Compound A29] | 90 | 90 | 90 | 50 | 30 | 50 | 90 | 40 | – | – | – | – | – | – | – | –
10 | O=P([O-])(O)C[n+]1ccc(-c2ncns2)cc1 [Compound A32, hydroxy-[[4-(1,2,4-thiadiazol-5-yl)pyridin-1-ium-1-yl]methyl]phosphinate] | 60 | 70 | 50 | 40 | 20 | 20 | 0 | 10 | – | – | – | – | – | – | – | –
11 | O=S(=O)([O-])CC[n+]1ccc(-c2ncco2)cc1 [Compound A39] | 40 | 0 | 0 | 0 | 30 | 0 | 20 | 0 | – | – | – | – | – | – | – | –
12 | O=C(O)C[n+]1ccc(-c2nc(C(F)(F)F)ns2)cc1 [Compound A1, 2-[4-[3-(trifluoromethyl)-1,2,4-thiadiazol-5-yl]pyridin-1-ium-1-yl]acetic acid 2,2,2-trifluoroacetate] | 100 | 60 | 70 | 90 | 90 | 90 | 40 | 70 | – | – | – | – | – | – | – | –
13 | O=C(O)C[n+]1ccc(-c2ccno2)cc1 [Compound A40] | 10 | 0 | 0 | 0 | 0 | 0 | 20 | 0 | – | – | – | – | – | – | – | –
14 | O=C(O)C[n+]1ccc(-c2nc(C(F)(F)F)co2)cc1 [Compound A44] | 30 | 10 | 20 | 10 | 10 | 0 | 0 | 10 | – | – | – | – | – | – | – | –
15 | O=S(=O)([O-])C[n+]1ccc(-c2ncco2)cc1 [Compound A23] | 0 | 0 | 20 | 0 | 20 | 0 | 10 | 0 | – | – | – | – | – | – | – | –
16 | Cc1noc(-c2cc[n+](CCC(=O)O)cc2)n1 [Compound A50] | 40 | 20 | 90 | 40 | 70 | 80 | 30 | 50 | – | – | – | – | – | – | – | –
17 | O=S(=O)([O-])CC[n+]1ccc(-c2ccno2)cc1 [Compound A41] | 10 | 10 | 10 | 0 | 0 | 10 | 0 | 0 | – | – | – | – | – | – | – | –
18 | Cc1nsc(-c2cc[n+](CS(=O)(=O)[O-])cc2)n1 [Compound A2, [4-(3-methyl-1,2,4-thiadiazol-5-yl)pyridin-1-ium-1-yl]methanesulfonate] | 100 | 60 | 90 | 80 | 90 | 70 | 70 | 60 | – | – | – | – | – | – | – | –
19 | O=C(O)CC[n+]1ccc(-c2nc(C(F)(F)F)co2)cc1 [Compound A45] | 0 | 10 | 20 | 50 | 0 | 0 | 0 | 0 | – | – | – | – | – | – | – | –
20 | COP(=O)([O-])C[n+]1ccc(-c2ncns2)cc1 [Compound A30, methoxy-[[4-(1,2,4-thiadiazol-5-yl)pyridin-1-ium-1-yl]methyl]phosphinate] | – | – | – | – | – | – | – | – | 90 | 90 | 90 | 90 | 70 | 90 | 50 | 30
21 | O=S(=O)([O-])CC[n+]1ccc(-c2nc(C(F)(F)F)ns2)cc1 [Compound A38] | 90 | 60 | 50 | 80 | 60 | 40 | 60 | 70 | – | – | – | – | – | – | – | –
